According to patent EP1073891B1, “METHOD OF PREDICTING RECEPTOR MODULATING ACTIVITY” (Duke University, priority 1998, dated 1999):
Blank lines part the entries; values can stand above or below the molecule they belong to.

Experiments:
[1] = system: ER; assay type: cell-based
[2] = In vivo tissue pharmacology of antiestrogen (uterus, bone, cardiovascular system); details: assayed in vivo
[3] = system: MCF-7 cell xenografts; assay: Growth of MCF-7 cell xenografts in A-thymic nude mice; assay type: in vivo
[4] = target: T1, ERα (Homo sapiens, UniProt P03372); assay type: binding; design: purchased PanVera Corporation, Madison, WI; details: Table 14, ERα and ERβ; progesterone 1 µM
T1 sequence (P03372 1-595): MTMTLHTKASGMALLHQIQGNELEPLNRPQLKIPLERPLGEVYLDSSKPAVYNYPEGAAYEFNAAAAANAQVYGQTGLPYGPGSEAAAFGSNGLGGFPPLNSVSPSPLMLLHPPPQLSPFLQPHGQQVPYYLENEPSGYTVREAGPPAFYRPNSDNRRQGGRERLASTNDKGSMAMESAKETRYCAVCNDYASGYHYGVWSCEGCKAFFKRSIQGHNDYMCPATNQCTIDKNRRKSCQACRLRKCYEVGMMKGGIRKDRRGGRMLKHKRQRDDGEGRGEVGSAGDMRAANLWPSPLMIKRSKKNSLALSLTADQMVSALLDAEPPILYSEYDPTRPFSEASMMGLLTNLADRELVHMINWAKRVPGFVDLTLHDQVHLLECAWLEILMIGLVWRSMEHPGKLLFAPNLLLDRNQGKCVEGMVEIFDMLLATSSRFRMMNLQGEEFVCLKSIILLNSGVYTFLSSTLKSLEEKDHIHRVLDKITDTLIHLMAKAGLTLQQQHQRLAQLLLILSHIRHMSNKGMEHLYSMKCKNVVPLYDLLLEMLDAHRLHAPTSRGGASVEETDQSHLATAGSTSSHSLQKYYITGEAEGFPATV
Method: Oligonucleotides corresponding to the vitellogenin ERE, biotin-[…] (forward) and biotin-[…] (reverse), were synthesized by Genosys.
These assays were conducted by phage ELISA.
Res. Treat. […] Jordan, Pharmacological Rev. […] And Metab.
Bound phage were detected as described previously.

[5] = target: T2, full length ER (Homo sapiens, UniProt P03372); assay: Mapping of probe binding sites, phage ELISA on directly immobilized receptor
T2 construct: amino terminal domain (1-184) fused to GST, and the full length ER; purchased PanVera Corporation, Madison, WI
T2 sequence (P03372 1-595): T1 sequence (P03372 1-595)
Method: Assays were conducted using the format described in Example 2.3, except that the domains were directly immobilized on the plastic surface of the well. Assays were conducted as for phage ELISA (Ex. 2.3).

[6] = target: T1, ERα; assay: Disruption of ERα transcriptional activity by peptide-Gal4DBD fusions, 3xERELuc reporter in HeLa cells (Examples 101.4, 101.7); assay type: cell-based
Method: HeLa cells were transfected with ERα expression plasmid (RST7ERα), 3xERELuc reporter, pCMVβgal along with different peptide-Gal4DBD fusion constructs. pM is the Gal4DBD control without peptide fusion. Luciferase activity was measured and normalized (Fig. 16). The ability of different peptides to disrupt ERα transcriptional activity correlates with the affinity of these peptides to ERα as measured in mammalian two-hybrid assays in [Figure 15(A)]. […] Two copies of LXXLL motifs interact synergistically to disrupt ER transcriptional activity. 2XF6: two copies of F6 peptide was constructed in tandem with a 54-amino acid spacing linker that has the same sequence as in that in between GRIP-1 NR box II and NR box III. F6G:Ga14DBD-F6 fusion with only one copy of F6 peptide plus the linker. Transient transfection was performed in HeLa cells with 3xERELuc, RST7ERα, pCMVβgal and increasing amount of Gal4DBD-peptide fusion constructs as indicated in the X-axis.
(§1) It contains the LXXLL motif. […] HeLa cells were transfected with either ERα or ERβ expression plasmids along with 3xERELuc reporter, pCMVβgal and peptide-DBD fusion constructs as indicated.

[7] = target: T3, ERβ (Homo sapiens, UniProt Q92731); assay: Disruption of ERβ transcriptional activation by peptide-DBD fusions, 3xERELuc reporter in HeLa cells (Example 101.7); assay type: cell-based; details: 17β-estradiol
From the text: as §1
Target sequence in this assay (Q92731 whole entry, the tested form may be a part): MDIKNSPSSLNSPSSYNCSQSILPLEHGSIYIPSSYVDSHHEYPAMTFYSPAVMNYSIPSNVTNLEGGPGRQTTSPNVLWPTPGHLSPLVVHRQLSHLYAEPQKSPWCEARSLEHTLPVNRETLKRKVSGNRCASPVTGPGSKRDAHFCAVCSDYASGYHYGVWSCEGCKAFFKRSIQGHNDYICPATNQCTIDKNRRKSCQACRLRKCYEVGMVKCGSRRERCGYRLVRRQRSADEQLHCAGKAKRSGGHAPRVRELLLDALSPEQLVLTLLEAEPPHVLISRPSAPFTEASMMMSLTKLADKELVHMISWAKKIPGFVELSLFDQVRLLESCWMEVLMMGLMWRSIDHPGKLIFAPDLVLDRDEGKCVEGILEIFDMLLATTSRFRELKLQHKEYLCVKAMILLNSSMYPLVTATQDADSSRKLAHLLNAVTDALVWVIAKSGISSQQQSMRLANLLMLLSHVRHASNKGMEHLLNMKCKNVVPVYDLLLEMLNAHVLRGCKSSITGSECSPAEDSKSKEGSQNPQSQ

[8] = target: T3, ERβ; assay: Mammalian two-hybrid of LXXLL peptides with nuclear receptors (Example 101.6); assay type: cell-based; design: Full length receptors and selected peptides were expressed as VP16 and Gal4 DBD fusions, respectively; expressed in transfected cells; details: mammalian two-hybrid receptor panel
From the text: (§2) Plasmids: All the Gal4DBD-peptide fusions were constructed as follows: DNA sequences code for the peptides were excised from mBAX vector with Xhol and Xbal restriction enzymes and subcloned into pMsx vector derived from pM vector (Clontech) with a linker sequence to generate infram Sall and Nhel sites for cloning. VP16ER-a construct was generated by polymerase chain reaction (PCR) of full length human ER-α cDNA with primers containing ECoRI flanking both 5' and 3' ends. […]
(§3) The interactions between different LXXLL motifs and different nuclear receptors were assayed in a mammalian two-hybrid system (Fig. 18). Full length receptors and selected peptides were expressed as VP16 and Gal4 DBD fusions, respectively. The strength of the interactions was measured by the activity of the 5xGa14Luc3 reporter gene. […]
Target sequence in this assay (Q92731 whole entry, species assumed, the tested form may be a part): as the sequence (Q92731 whole entry, the tested form may be a part) above

[9] = target: T4, TR (Homo sapiens, UniProt P10828); assay: as above; assay type: cell-based; details: mammalian two-hybrid receptor panel
T4 construct: Full length receptors and selected peptides were expressed as VP16 and Gal4 DBD fusions, respectively; expressed in transfected cells; host or cells: mammalian cells; the plasmid was a gift (D.D. More, Baylor College of Medicine)
T4 sequence (P10828 1-461): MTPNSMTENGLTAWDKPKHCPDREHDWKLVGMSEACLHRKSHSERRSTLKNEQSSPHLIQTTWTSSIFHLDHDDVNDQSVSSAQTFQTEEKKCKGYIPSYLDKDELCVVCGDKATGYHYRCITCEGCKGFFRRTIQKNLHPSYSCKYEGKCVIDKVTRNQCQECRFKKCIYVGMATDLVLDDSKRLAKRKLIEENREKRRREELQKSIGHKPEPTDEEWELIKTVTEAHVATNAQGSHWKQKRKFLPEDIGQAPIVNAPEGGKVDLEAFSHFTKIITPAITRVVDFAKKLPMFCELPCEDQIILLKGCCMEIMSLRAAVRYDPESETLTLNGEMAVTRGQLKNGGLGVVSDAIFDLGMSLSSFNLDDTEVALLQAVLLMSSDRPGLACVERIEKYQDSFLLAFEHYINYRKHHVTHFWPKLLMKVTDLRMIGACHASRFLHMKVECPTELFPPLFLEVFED
From the text: as §2, §3

[10] = target: T5, RAR (Homo sapiens, UniProt P10276); assay: as above; assay type: cell-based; details: mammalian two-hybrid receptor panel
T5 construct: Full length receptors and selected peptides were expressed as VP16 and Gal4 DBD fusions, respectively; expressed in transfected cells; host or cells: mammalian cells
T5 sequence (P10276 1-462): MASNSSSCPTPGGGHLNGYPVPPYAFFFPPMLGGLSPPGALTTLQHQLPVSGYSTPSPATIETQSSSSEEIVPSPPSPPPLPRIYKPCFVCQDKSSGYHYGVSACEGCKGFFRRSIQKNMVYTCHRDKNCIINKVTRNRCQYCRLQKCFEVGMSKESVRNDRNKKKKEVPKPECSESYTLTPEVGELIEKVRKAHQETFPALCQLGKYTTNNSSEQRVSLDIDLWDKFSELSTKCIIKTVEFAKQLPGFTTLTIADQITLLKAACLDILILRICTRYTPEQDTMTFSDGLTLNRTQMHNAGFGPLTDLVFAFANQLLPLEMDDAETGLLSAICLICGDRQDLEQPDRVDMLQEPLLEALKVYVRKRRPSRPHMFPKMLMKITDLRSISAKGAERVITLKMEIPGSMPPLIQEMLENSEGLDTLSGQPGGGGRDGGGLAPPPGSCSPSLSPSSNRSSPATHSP
From the text: as §2, §3

Molecule: CC/C(=C(\c1ccccc1)c1ccc(/C=C/C(=O)O)cc1)c1ccccc1 [GW5638]
- AF-1 and AF-2 agonist activity [1]: devoid of AF-1 and AF-2 agonist activity
- inhibition of tamoxifen partial agonist activity ([1]; assayed in vitro): inhibits tamoxifen partial agonist activity under all conditions examined
- activity in bone and the cardiovascular system [2]: functions as an estrogen
- uterotrophic activity [2]: does not display uterotrophic activity
- growth of MCF-7 cell xenografts [3]: effectively inhibited

Molecule: CC(=O)[C@H]1CC[C@H]2[C@@H]3CCC4=CC(=O)CC[C@]4(C)[C@H]3CC[C@]12C [progesterone]
- binding pattern of the probes (fingerprint) compared with buffer [4]: indistinguishable from that produced by buffer

- binding to the full length protein [5]: binds only to the full length protein
Molecule: SSEYCFYWDSAHCSR [α I]

- disruption of ERα transcriptional activity [6]: did not interfere
- disruption of the transcriptional activation by ERβ [7]: strongly disrupted
- interaction with ERβ [8]: selective interactions
- interaction with TRβ [9]: selective interactions
- interaction with RARα [10]: selective interactions
Molecule: SSIKDFPNLISLLSR [Peptide #293]
